Laboratory results as given in patent publication US10760052B2, “Method of inhibiting tau phosphorylation” (priority 2012, dated 2020).
Read-outs that look alike come from different tables or passages of the source.

Molecular target: T1, mu opiate receptor (MOR) (Rattus norvegicus, UniProt P33535)
T1 construct: from tissue; host or cells: striatum (membrane preparation)
Type: biochemical

[1] = [35S]GTPγS binding to Gαo in striatal membranes, compound 0.1 μM
[2] = [35S]GTPγS binding to Gαo in striatal membranes, compound 1 μM
[3] = [35S]GTPγS binding to Gαo in striatal membranes, compound 1 μM plus 1 μM β-funaltrexamine (MOR antagonist)
[4] = 0.1 μM compound, striatal membranes, Series C-2
[5] = 1 μM compound + 1 μM β-FNA (selective MOR antagonist), Series C-2
[6] = 1 μM compound, striatal membranes, Series C-2

T1 sequence (P33535 whole entry): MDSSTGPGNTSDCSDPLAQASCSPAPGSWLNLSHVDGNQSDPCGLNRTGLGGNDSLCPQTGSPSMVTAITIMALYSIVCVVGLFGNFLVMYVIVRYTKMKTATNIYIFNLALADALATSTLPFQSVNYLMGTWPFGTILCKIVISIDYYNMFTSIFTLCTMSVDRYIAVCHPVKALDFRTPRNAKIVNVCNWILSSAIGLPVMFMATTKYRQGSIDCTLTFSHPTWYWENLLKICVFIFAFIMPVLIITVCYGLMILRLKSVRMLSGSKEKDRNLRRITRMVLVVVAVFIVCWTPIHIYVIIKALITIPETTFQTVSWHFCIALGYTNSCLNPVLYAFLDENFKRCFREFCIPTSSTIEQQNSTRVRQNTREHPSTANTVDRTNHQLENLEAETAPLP

Row | SMILES | % DAMGO (0.1 μM) | % DAMGO (1 μM) | % DAMGO + BFNA | Concentration of FLNA-Binding Compound as Agonist 0.1 μM [1] | Concentration of FLNA-Binding Compound as Agonist 1 μM [2] | Concentration of FLNA-Binding Compound as Agonist 1 μM + BFNA [3] | [35S]GTPγS binding, FLNA-Binding Compound as Agonist at 0.1 μM [4] | [35S]GTPγS binding, FLNA-Binding Compound as Agonist at 1 μM + BFNA [5] | [35S]GTPγS binding, FLNA-Binding Compound as Agonist at 1 μM [6] | Concentration of FLNA-Binding Compound as Agonist 0.1 μM | Concentration of FLNA-Binding Compound as Agonist 1 μM | Concentration of FLNA-Binding Compound as Agonist 1 μM + BFNA | [35S]GTPγS binding, FLNA-Binding Compound as Agonist at 0.1 μM | [35S]GTPγS binding, FLNA-Binding Compound as Agonist at 1 μM | [35S]GTPγS binding, FLNA-Binding Compound as Agonist at 1 μM + BFNA
1 | OC(COc1cccc(F)c1)CN1CCc2ccccc2C1 (stereo not drawn) [Compound A0055] | 53.2% | 78.4% | 102.4% | 89.8% | 195.2% | 33.5% | – | – | – | – | – | – | – | – | –
2 | COc1ccc(S(=O)(=O)N2CCOC23CCN(C)CC3)cc1 [Compound C0088M] | 160.5% | 161.7% | 513.3% | – | – | – | 276.3% | 177.1% | 355.3% | – | – | – | – | – | –
3 | CC1CCC(C(C)C)C(OCC(O)CN2CCC(=O)C(C)C2)C1 (stereo not drawn) [Compound A0056] | 74.1% | 56.2% | 43.6% | – | – | – | – | – | – | 115.6% | 129.6% | 17.4% | – | – | –
4 | COc1ccccc1CC(O)CC1c2c(cc3c(c2OC)OCO3)CC[N+]1(C)C (stereo not drawn) [Compound B0032] | 115.0% | 109.0% | 35.5% | 221.1% | 297.7% | 15.6% | – | – | – | – | – | – | – | – | –
5 | CC(=O)c1ccc(S(=O)(=O)N2CCC3(CC2)OC(CN(C)C)CN3S(=O)(=O)c2ccc(C(C)=O)cc2)cc1 (stereo not drawn) [Compound C0065] | 127.0% | 121.3% | 119.5% | 198.3% | 279.5% | 47.7% | – | – | – | – | – | – | – | – | –
6 | COc1ccc(C(=O)CC2c3c(cc4c(c3OC)OCO4)CC[N+]2(C)C)c(F)c1 (stereo not drawn) [Compound B0027] | 82.3% | 100.0% | 41.5% | 140.9% | 266.9% | 21.6% | – | – | – | – | – | – | – | – | –
7 | Nc1ccc(C(=O)N2CCC3(CC2)OCCN3S(=O)(=O)c2ccc(N)cc2)cc1 [Compound C0023] | 89.5% | 87.6% | 44.5% | 153.2% | 233.7% | 23.2% | – | – | – | – | – | – | – | – | –
8 | O=C1CN(Cc2ccccc2)C2(CCN(S(=O)(=O)c3cc(Cl)cc(Cl)c3O)CC2)N1 [Compound C0138M] | 86.3% | 90.9% | 131.0% | 126.9% | 183.9% | 51.5% | – | – | – | – | – | – | – | – | –
9 | CCN1CCC2(CC1)OCCN2S(=O)(=O)c1ccc(C(C)=O)cc1 [Compound C0094M] | 100.2% | 119.9% | 334.2% | – | – | – | 172.5% | 115.3% | 263.5% | – | – | – | – | – | –
10 | COc1c2c(cc3c1C(CC(=O)c1ccc(N4CCOCC4)cc1)[N+](C)(C)CC3)OCO2 (stereo not drawn) [Compound B0004] | 102.8% | 85.8% | 110.8% | 170.3% | 231.7% | 72.0% | – | – | – | – | – | – | – | – | –
11 | COc1c2c(cc3c1C(CC(=O)CCc1ccc(Cl)cc1)[N+](C)(C)CC3)OCO2 (stereo not drawn) [Compound B0017] | 58.9% | 45.6% | 75.2% | 99.6% | 122.0% | 49.6% | – | – | – | – | – | – | – | – | –
12 | COc1cccc(CCC(=O)CC2c3c(cc4c(c3OC)OCO4)CC[N+]2(C)C)c1 (stereo not drawn) [Compound B0034] | 71.6% | 88.1% | 80.2% | 122.5% | 235.2% | 41.8% | – | – | – | – | – | – | – | – | –
13 | COc1cc(CC(=O)CC2c3c(cc4c(c3OC)OCO4)CC[N+]2(C)C)cc(OC)c1OC (stereo not drawn) [Compound B0008] | 84.0% | 101.9% | 70.0% | 148.3% | 264.1% | 46.0% | – | – | – | – | – | – | – | – | –
14 | CN1CCC2(CC1)NC(=O)CN2Cc1ccccc1 [Compound C0104M] | 99.5% | 96.3% | 296.5% | – | – | – | 188.2% | 143.8% | 238.9% | – | – | – | – | – | –
15 | CC(=O)c1ccc(C(=O)N2CCC3(CC2)OCCN3C(=O)c2ccc(C(C)=O)cc2)cc1 [Compound C0054] | 47.0% | 54.5% | 98.9% | 68.2% | 127.0% | 43.5% | – | – | – | – | – | – | – | – | –
16 | COc1ccc(CCC(=O)CC2c3c(cc4c(c3OC)OCO4)CC[N+]2(C)C)c(OC)c1 (stereo not drawn) [Compound B0043] | 42.4% | 97.6% | 632.7% | 74.8% | 248.1% | 166.4% | – | – | – | – | – | – | – | – | –
17 | O=S(=O)(c1cccc2cccnc12)N1CCC2(CC1)OCCN2S(=O)(=O)c1cccc2cccnc12 [Compound C0143M] | 47.1% | 59.3% | 94.7% | 81.0% | 193.3% | 86.5% | 81.0% | 86.5% | 193.3% | – | – | – | – | – | –
18 | CC1CCC(C(C)C)C(OCC(O)CN2CCC(=O)CC2)C1 (stereo not drawn) [Compound A0060] | 63.9% | 68.6% | 35.8% | 99.7% | 158.2% | 14.3% | – | – | – | – | – | – | – | – | –
19 | CC(=O)c1ccc(S(=O)(=O)N2CCC3(CC2)OCCN3S(=O)(=O)c2ccc(C(C)=O)cc2)cc1 [Compound C0011] | 126.8% | 114.3% | 36.5% | – | – | – | – | – | – | 217.0% | 305.0% | 19.0% | 217.0% | 305.0% | 19.0%
20 | N#Cc1ccc(S(=O)(=O)N2CCC3(CC2)OCCN3S(=O)(=O)c2ccc(C#N)cc2)cc1 [Compound C0008] | 41.4% | 72.9% | 4.4% | 71.2% | 201.6% | 2.8% | – | – | – | – | – | – | – | – | –
21 | CC1CN(CC(O)COc2ccccc2)CC(C)O1 (stereo not drawn) [Compound A0025] | 33.2% | 54.5% | 198.5% | 58.6% | 138.7% | 52.2% | – | – | – | – | – | – | – | – | –
22 | COc1cc(C(=O)CC2c3c(cc4c(c3OC)OCO4)CC[N+]2(C)C)cc(OC)c1OC (stereo not drawn) [Compound B0037] | 76.5% | 80.4% | 325.8% | 119.8% | 186.0% | 106.2% | – | – | – | – | – | – | – | – | –
23 | CNc1ccc(S(=O)(=O)N2CCC3(CC2)OCCN3S(=O)(=O)c2ccc(NC)cc2)cc1 [Compound C0024] | 92.8% | 84.1% | 135.1% | 178.4% | 229.6% | 59.3% | – | – | – | – | – | – | – | – | –
24 | NS(=O)(=O)c1ccc(S(=O)(=O)N2CCC3(CC2)OCCN3S(=O)(=O)c2ccc(S(N)(=O)=O)cc2)cc1 [Compound C0034] | 61.3% | 76.7% | 482.5% | – | – | – | – | – | – | 103.6% | 167.9% | 80.1% | – | – | –
25 | CC(=O)N1CCSC12CCN(S(=O)(=O)c1ccc([N+](=O)[O-])cc1)CC2 [Compound C0050] | 76.1% | 54.8% | 134.1% | – | – | – | 110.3% | 59.0% | 127.6% | – | – | – | – | – | –
26 | CC(C)c1ccc(S(=O)(=O)N2CCC3(CC2)OCCN3S(=O)(=O)c2ccc(C(C)C)cc2)cc1 [Compound C0007] | 46.0% | 70.5% | 17.0% | 79.1% | 195.0% | 10.9% | – | – | – | – | – | – | – | – | –
